Reference: patent publication US20260207572A1, “METHODS AND COMPOSITIONS FOR TREATMENT OF SUBJECTS WITH HEPATIC IMPAIRMENTS” (ELEVAR THERAPEUTICS, INC., priority 2022, published 2026)

Molecular target: CYP2C19 (Homo sapiens, UniProt P33261)
Experiment: In vitro CYP phenotyping and metabolism study, recombinant CYP2C19
Assay type: in vitro ADME
Description: Recently, an in vitro cytochrome (CYP) phenotyping and metabolism study was performed.

CYP2C19, sequence (P33261 whole entry): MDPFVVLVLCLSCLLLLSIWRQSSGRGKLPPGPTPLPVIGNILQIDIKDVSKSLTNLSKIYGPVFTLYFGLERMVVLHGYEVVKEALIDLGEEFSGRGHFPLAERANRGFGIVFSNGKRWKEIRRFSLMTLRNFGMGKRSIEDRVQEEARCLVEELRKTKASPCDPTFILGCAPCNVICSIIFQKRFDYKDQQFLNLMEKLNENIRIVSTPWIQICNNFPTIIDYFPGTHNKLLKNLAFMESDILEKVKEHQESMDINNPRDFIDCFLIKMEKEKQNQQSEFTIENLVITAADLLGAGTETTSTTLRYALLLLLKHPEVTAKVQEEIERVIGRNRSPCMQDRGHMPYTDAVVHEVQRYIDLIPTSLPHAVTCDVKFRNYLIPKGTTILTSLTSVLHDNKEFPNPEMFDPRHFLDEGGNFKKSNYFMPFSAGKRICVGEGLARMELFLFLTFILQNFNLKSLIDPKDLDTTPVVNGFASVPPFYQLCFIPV

In the case of `N#CC1(c2ccc(NC(=O)c3cccnc3NCc3ccncc3)cc2)CCCC1` [Rivoceranib, N-[4-(1-cyanocyclopentyl)phenyl]-2-{[(pyridin-4-yl)methyl]amino} pyridine-3-carboxamide], the “rivoceranib consumed at 60 minute incubation” value (CYP2C19) is reported as “less than 10%”, the “% Remaining at 60 minute incubation” value (Recombinant CYP2C19, 5 μM) is reported as 98.9% and the CLINT (Recombinant CYP2C19, 5 μM) is reported as 0.057 μL/minunte/mg. It also gave a half-life at 5 µM (human, Recombinant CYP2C19, 5 μM, read-out: t½) of 483 min.
